This passage reports IC50 results from patent EP4477653A1 (Perha Pharmaceuticals, priority 2023, dated 2024).

In the first experiment the target is T1, human recombinant A3AR (expressed in HEK-293 cells) (Homo sapiens, UniProt P0DMS8).
T1 construct: host or cells: HEK-293 cells
T1 sequence (P0DMS8 1-318): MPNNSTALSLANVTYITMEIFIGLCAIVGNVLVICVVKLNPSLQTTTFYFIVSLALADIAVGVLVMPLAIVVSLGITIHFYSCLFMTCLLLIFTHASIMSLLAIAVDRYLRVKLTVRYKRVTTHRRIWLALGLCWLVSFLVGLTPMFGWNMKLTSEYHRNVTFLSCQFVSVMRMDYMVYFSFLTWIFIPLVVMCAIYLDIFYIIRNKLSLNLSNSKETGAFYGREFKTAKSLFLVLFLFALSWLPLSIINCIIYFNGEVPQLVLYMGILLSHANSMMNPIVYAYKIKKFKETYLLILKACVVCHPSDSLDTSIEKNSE
Nature of the experiment: Adenosine receptors antagonism assay (Eurofins), [125I]-AB-MECA radioligand competition. It is filed as binding. Particulars: [125I]-AB-MECA 0.15 nM, r.t., 120 min; IC50 from dose-response curves; read-out: Potency Class A3AR.
Procedure: Assays were carried out at r.t. for 120 min. Compounds were initially tested at three concentrations (0.01, 0.1, 1 µM). […] IC50 values, which is the concentration causing a half-maximal inhibition of control specific binding, and Hill coefficients (nH) were determined by non-linear regression analysis of the competition curves generated with mean replicate values using Hill equation curve fitting. The inhibition constants (Ki) were calculated using the Cheng Prusoff equation.
Regarding `CCC(CC)Nc1cc(Nc2ccc(OC)cn2)c2nnc(C(C)C)n2n1` [compound 155, 3-isopropyl-N8-(5-methoxypyridin-2-yl)-N6-(pentan-3-yl)-[1,2,4]triazolo[4,3-b]pyridazine-6,8-diamine], the IC50 was < 1 nM.
In the case of `COc1ccc(CN(C)c2cc(NCc3ccccn3)c3nnc(C4CC4)n3n2)cc1` [compound 188, 3-cyclopropyl-N6-(4-methoxybenzyl)-N6-methyl-N8-(pyridin-2-ylmethyl)-[1,2,4]triazolo[4,3-b]pyridazine-6,8-diamine], the IC50 is 100 to 1000 nM.
Regarding `CCCNc1cc(NCc2ccccn2)c2nnc(C3CC3)n2n1` [compound 190, 3-cyclopropyl-N6-propyl-N8-(pyridin-2-ylmethyl)-[1,2,4]triazolo[4,3-b]pyridazine-6,8-diamine], the IC50 lay within 10 to 100 nM.
With `COCCCNc1cc(NCCCOC)c2nnc(-c3ccccc3)n2n1` [compound 109, N6,N8-bis(3-methoxypropyl)-3-phenyl-[1,2,4]triazolo[4,3-b]pyridazine-6,8-diamine], the IC50 lay within 100 to 1000 nM.
Regarding `CC[C@H](CO)Nc1cc(NCCc2ccccn2)c2nnc(C3CC3)n2n1` [compound 185, (2R)-2-[[3-cyclopropyl-8-[2-(2-pyridyl)ethylamino]-[1,2,4]triazolo[4,3-b]pyridazin-6-yl]amino]butan-1-ol], the IC50 was in the range of 10 to 100 nM.
For the compound `CNC(=O)CCNc1cc(NCc2ccccc2)c2nnc(C(C)C)n2n1` [compound 26, 3-[[8-(benzylamino)-3-isopropyl-[1,2,4]triazolo[4,3-b]pyridazin-6-yl]amino]-N-methyl-propanamide], the IC50 was 10 to 100 nM.
Same read-out and setting: for `c1ccc(CNc2cc(NCc3ccoc3)nn3c(C4CC4)nnc23)nc1` [compound 209, 3-cyclopropyl-N6-(furan-3-ylmethyl)-N8-(pyridin-2-ylmethyl)-[1,2,4]triazolo[4,3-b]pyridazine-6,8-diamine] the value was 1 to 10 nM; for `COCCCNc1cc(NCCCOC)c2nnc(C3CC3)n2n1` [compound 110, 3-cyclopropyl-N6,N8-bis(3-methoxypropyl)-[1,2,4]triazolo[4,3-b]pyridazine-6,8-diamine], 10 to 100 nM; for `CC[C@@H](CO)Nc1cc(Nc2cccnn2)c2nnc(C3CC3)n2n1` [compound 182, (S)-2-((3-cyclopropyl-8-(pyridazin-3-ylamino)-[1,2,4]triazolo[4,3-b]pyridazin-6-yl)amino)butan-1-ol], < 1 nM.
Take `CC(C)(C)Nc1cc(NCc2ccccn2)c2nnc(C3CC3)n2n1` [compound 195, N6-(tert-butyl)-3-cyclopropyl-N8-(pyridin-2-ylmethyl)-[1,2,4]triazolo[4,3-b]pyridazine-6,8-diamine]: the IC50 was 1 to 10 nM.
The same measure, in the same setting: for `CC(C)c1nnc2c(NCc3ccccc3)cc(NCCC(N)=O)nn12` [compound 25, 3-[[8-(benzylamino)-3-isopropyl-[1,2,4]triazolo[4,3-b]pyridazin-6-yl]amino]propanamide] the value was 100 to 1000 nM.
In the case of `COCCCCNc1cc(NCc2ccccc2)c2nnc(C(C)C)n2n1` [compound 14, N8-benzyl-3-isopropyl-N6-(4-methoxybutyl)-[1,2,4]triazolo[4,3-b]pyridazine-6,8-diamine], the IC50 is 10 to 100 nM.
In the case of `CCC(CC)Nc1cc(NCCc2cccnc2)c2nnc(C(C)C)n2n1` [compound 84, N6-(1-ethylpropyl)-3-isopropyl-N8-[2-(3-pyridyl)ethyl]-[1,2,4]triazolo[4,3-b]pyridazine-6,8-diamine], the IC50 is 1 to 10 nM.
Regarding `CCC(CC)Nc1cc(Nc2cnccn2)c2nnc(C3CC3)n2n1` [compound 180, 3-cyclopropyl-N6-(pentan-3-yl)-N8-(pyrazin-2-yl)-[1,2,4]triazolo[4,3-b]pyridazine-6,8-diamine], the IC50 was < 1 nM.
On to `CC(C)c1nnc2c(NCc3ccccc3)cc(N[C@H]3CCCOC3)nn12` [compound 22, N8-benzyl-3-isopropyl-N6-[(3S)-tetrahydropyran-3-yl]-[1,2,4]triazolo[4,3-b]pyridazine-6,8-diamine], for which the IC50 was 10 to 100 nM.
On the same count and under the same terms, for `CCC(CC)CNc1cc(NCc2ccccn2)c2nnc(C3CC3)n2n1` [compound 196, 3-cyclopropyl-N6-(2-ethylbutyl)-N8-(pyridin-2-ylmethyl)-[1,2,4]triazolo[4,3-b]pyridazine-6,8-diamine] the value was 1 to 10 nM; for `CC(C)c1nnc2c(NCc3ccccn3)cc(NC3CC4(CCC4)C3)nn12` [compound 53, 3-isopropyl-N8-(2-pyridylmethyl)-N6-spiro[3.3]heptan-2-yl-[1,2,4]triazolo[4,3-b]pyridazine-6,8-diamine], 1 to 10 nM; for `CCC(CC)Nc1cc(NCc2cncnc2)c2nnc(C(C)C)n2n1` [compound 93, N6-(1-ethylpropyl)-3-isopropyl-N8-(pyrimidin-5-ylmethyl)-[1,2,4]triazolo[4,3-b]pyridazine-6,8-diamine], 1 to 10 nM.
For `c1ccc(CNc2cc(NCc3cccs3)nn3c(C4CC4)nnc23)nc1` [compound 210, 3-cyclopropyl-N8-(pyridin-2-ylmethyl)-N6-(thiophen-2-ylmethyl)-[1,2,4]triazolo[4,3-b]pyridazine-6,8-diamine], the IC50 lay within 1 to 10 nM.
On the same count and under the same terms, next, `CC[C@H](CO)Nc1cc(NCc2ccccn2)c2nnc(C3CC3)n2n1` [compound 211, (R)-2-((3-cyclopropyl-8-((pyridin-2-ylmethyl)amino)-[1,2,4]triazolo[4,3-b]pyridazin-6-yl)amino)butan-1-ol]: 10 to 100 nM; `c1ccc(CNc2cc(NCc3ccccn3)c3nnc(C4CC4)n3n2)cc1` [compound 186, N6-benzyl-3-cyclopropyl-N8-(pyridin-2-ylmethyl)-[1,2,4]triazolo[4,3-b]pyridazine-6,8-diamine]: 1 to 10 nM.
The same measure, in the same setting: for `CCC(CC)Nc1cc(Nc2ccnnc2)c2nnc(C3CC3)n2n1` [compound 176, 3-cyclopropyl-N6-(pentan-3-yl)-N8-(pyridazin-4-yl)-[1,2,4]triazolo[4,3-b]pyridazine-6,8-diamine] the value was 1 to 10 nM.
Take `CCC(CC)Nc1cc(NCCc2ccccc2)c2nnc(C3CC3)n2n1` [compound 217, 3-cyclopropyl-N6-(pentan-3-yl)-N8-phenethyl-[1,2,4]triazolo[4,3-b]pyridazine-6,8-diamine]: the IC50 lay within 1 to 10 nM.
Regarding `CCC(CC)Nc1cc(Nc2ccnnc2)c2nnc(C(C)C)n2n1` [compound 149, 3-isopropyl-N6-(pentan-3-yl)-N8-(pyridazin-4-yl)-[1,2,4]triazolo[4,3-b]pyridazine-6,8-diamine], the IC50 was 1 to 10 nM.
For `CCC(CC)Nc1cc(Nc2ncccn2)c2nnc(C3CC3)n2n1` [compound 179, 3-cyclopropyl-N6-(pentan-3-yl)-N8-(pyrimidin-2-yl)-[1,2,4]triazolo[4,3-b]pyridazine-6,8-diamine], the IC50 lay within 10 to 100 nM.
For `CC(C)c1nnc2c(NCc3ccccc3)cc(NCCCCO)nn12` [compound 13, 4-[[8-(benzylamino)-3-isopropyl-[1,2,4]triazolo[4,3-b]pyridazin-6-yl]amino]butan-1-ol], the IC50 fell in the range of 10 to 100 nM.
Take `CCC(CC)Nc1cc(Nc2cccnc2OC)c2nnc(C3CC3)n2n1` [compound 184, 3-cyclopropyl-N8-(2-methoxypyridin-3-yl)-N6-(pentan-3-yl)-[1,2,4]triazolo[4,3-b]pyridazine-6,8-diamine]: the IC50 is 10 to 100 nM.
As to `CCC(CC)Nc1cc(NCc2cccnn2)c2nnc(C(C)C)n2n1` [compound 95, N6-(1-ethylpropyl)-3-isopropyl-N8-(pyridazin-3-ylmethyl)-[1,2,4]triazolo[4,3-b]pyridazine-6,8-diamine], the IC50 was in the range of 1 to 10 nM.
`CCC(CC)Nc1cc(NCc2ccc(N)cc2)c2nnc(C(C)C)n2n1` [compound 75, N8-[(4-aminophenyl)methyl]-N6-(1-ethylpropyl)-3-isopropyl-[1,2,4]triazolo[4,3-b]pyridazine-6,8-diamine]: the IC50 was 1 to 10 nM.
In the case of `CCC(CC)Nc1cc(NCc2ccccn2)c2nnc(-c3ccccc3)n2n1` [compound 66, N6-(1-ethylpropyl)-3-phenyl-N8-(2-pyridylmethyl)-[1,2,4]triazolo[4,3-b]pyridazine-6,8-diamine], the IC50 was 10 to 100 nM.
On the same count and under the same terms, for `CC(C)c1nnc2c(NCc3ccccn3)cc(NCc3ccccc3)nn12` [compound 56, N6-benzyl-3-isopropyl-N8-(2-pyridylmethyl)-[1,2,4]triazolo[4,3-b]pyridazine-6,8-diamine] the value was 1 to 10 nM.
The same measure, in the same setting: for `CCC(CC)Nc1cc(Nc2ccc(OC)nc2)c2nnc(C(C)C)n2n1` [compound 159, 3-isopropyl-N8-(6-methoxypyridin-3-yl)-N6-(pentan-3-yl)-[1,2,4]triazolo[4,3-b]pyridazine-6,8-diamine] the value was < 1 nM; for `CC[C@H](CO)Nc1cc(NCc2ccccc2O)c2nnc(C(C)C)n2n1` [compound 38, 2-[[[6-[[(1R)-1-(hydroxymethyl)propyl]amino]-3-isopropyl-[1,2,4]triazolo[4,3-b]pyridazin-8-yl]amino]methyl]phenol], 1 to 10 nM.
Take `CCC(CC)CNc1cc(NCCc2cccnc2)c2nnc(C(C)C)n2n1` [compound 166, N6-(2-ethylbutyl)-3-isopropyl-N8-[2-(3-pyridyl)ethyl]-[1,2,4]triazolo[4,3-b]pyridazine-6,8-diamine]: the IC50 lay in the range of 1 to 10 nM.

Still in this experiment, the particulars now being: read-out: Potency Class A3AR; [125I]-AB-MECA 0.15 nM, r.t., 120 min; IC50 from dose-response curves.
As for `CC[C@H](CO)Nc1cc(NCc2ccccn2)c2nnc(C(C)C)n2n1` [compound 169], the IC50 was 10 to 100 nM.
